Test results reported in paper PMC6562610, “Inhibition of Hedgehog Signaling in Fibroblasts, Pancreatic, and Lung Tumor Cells by Oxy186, an Oxysterol Analogue with Drug-Like Properties” (Cells, 2019).
“Also recorded” adds a separate entry of the source.

How the values were obtained:
[1] = system: Hh target gene Gli1 expression in NIH3T3-E1 cells; assay: Inhibition of CAPAN-1 conditioned medium (ligand)-induced Gli1 mRNA expression, Q-RT-PCR; format: cell-based; details: 72 h
Excerpt: (§1) NIH3T3-E1 fibroblasts were obtained from ATCC (Manassas, VA) and cultured, as previously described. CAPAN-1 and PANC-1 human pancreatic cancer cells were obtained from ATCC and cultured in Dulbecco’s Modified Eagle Medium (DMEM) containing 10% heat-inactivated fetal bovine serum (FBS) (Hyclone Laboratories, Logan, UT, USA) and antibiotics, as previously described. The human lung cancer cell lines A549 and H2030 were obtained from ATCC and cultured in RPMI-1640 containing 10% FBS. The human hepatoma cell line HepG2 was obtained from ATCC and cultured in DMEM containing 10% FBS. Mouse embryonic fibroblasts (MEFs) from suppressor of fused (Sufu) null mice (Sufu^−/−) were provided by Dr. Philip Beachy of Stanford University and cultured in DMEM containing 10% FBS. Gant61, SB431542 and vismodegib (GDC0449) were obtained from Cayman Chemical, HPI-1 was obtained from Abcam. For experiments, cells were treated in a medium containing 5% FBS.
Growth medium in confluent […] tissue culture plates of CAPAN-1 cells were replaced with 10 ml of fresh growth medium and cells were incubated for a total of 7 days. Conditioned medium (CM), containing Shh and Ihh, was collected and spun down to remove any detached cells and debris, aliquoted, and stored frozen at −80 °C [37].
(§2) Total RNA was extracted with the RNeasy Plus Mini Kit from Qiagen, according to the manufacturer’s instructions. One microgram of RNA was reverse-transcribed using an iScript Reverse Transcription Supermix from Bio-Rad, to make single-stranded cDNA. The cDNAs were then mixed with Qi SYBR Green Supermix (Bio-Rad, Hercules, CA, USA) for quantitative RT-PCR assay using a Bio-Rad I-cycler IQ quantitative thermocycler. […] Fold changes in gene expression were calculated using the ΔΔCt method. […]
Figure 3 Inhibition of ligand-induced Hedgehog signaling. […] After 72 h, RNA was extracted and analyzed by Q-RT-PCR for the expression of Hh target genes Gli1 (a,b,d) and Ptch1 (c), and normalized to Oaz1 expression. […] Luciferase activity was measured and normalized to the Renilla luciferase activity. […]

[2] = system: Gli1 expression in PANC-1 cells; assay: Inhibition of baseline Gli1 expression in PANC-1 cells, Q-RT-PCR; format: cell-based, human; details: 10 µM, 48 h
Excerpt: as §1
as §2, with “thermocycler. All PCR samples were prepared in triplicate wells in a 96-well plate.” for “thermocycler.”
Figure 4 Inhibition of Gli and Shh expression in (a) PDAC (PANC-1) and (b,c) human lung cancer cells (A549 and H2030, respectively) by Oxy186. Cells were treated with the compounds as indicated in DMEM or RPMI 1640 containing 5% FBS for (a) 48 or (b,c) 72 hours, then RNA was extracted and analyzed by Q-RT-PCR for the expression of Gli1 and normalized to GAPDH expression. (d) CAPAN-1 cells were treated with the compounds, as indicated, in DMEM containing 5% FBS for 72 h, then RNA was extracted and analyzed by Q-RT-PCR for the expression of Shh and normalized to GAPDH expression. […]

[3] = Metabolic stability in human liver microsomes; format: in vitro ADME
[4] = system: PANC-1 cells; assay: Cell counting assay, PANC-1; format: cell-based, human; details: 96 h
Description: A549 and H2030 cells cultured in 12-well plates at 20% confluence were treated with Oxy186, HPI-1, Gant61, or GDC0449 for 96 hours and then trypsinized and suspended in fresh medium. An aliquot of cell suspension was applied to a hemocytometer and counted under a microscope.
Figure 6 Inhibition of human pancreatic and lung cancer cell proliferation by Oxy186. (a,c) A549, (b) and (d) H2030, (e) PANC-1, and (f) CAPAN-1 cells were treated with the compounds as indicated in RPMI 1640 (a–d) or DMEM (e,f) containing 5% FBS for 96 h and then were trypsinized and counted. Data from a representative experiment are reported as the mean of triplicate determinations ± SD (* p < 0.05 vs. Control; ** p < 0.01 vs. control).

With `C[C@]12CC[C@H](O)C[C@@H]1CC[C@@H]1[C@@H]2CC[C@@]2(C)[C@H]1CC[C@@H]2[C@](C)(O)CCc1ccc(F)cc1` [Oxy186, (3S,5S,8R,9S,10S,13S,14S,17S)-17-((R)-4-(4-fluorophenyl)-2-hydroxybutan-2-yl)-10,13-dimethylhexadecahydro-1H-cyclopenta[a]phenanthren-3-ol] the “Inhibition of ligand-induced Gli1 mRNA expression” value ([1]; NIH3T3-E1 cells, CAPAN-1 CM) was “robustly inhibited; also recorded: greater Hh signaling inhibitory efficacy than Oxy16”, the IC50 ([1]; NIH3T3 cells activated by CAPAN-1 CM Hh ligands) was 600 nM and the “Inhibition of high baseline expression of Gli1” value [2] was “significantly inhibited”. For the same compound, the “HLM, Half-Life” value [3] was 45 min, the remaining at 1 h ([3]; 60 min, read-out: HLM, % Remaining after 60 min) was 40% and the half-life ([3]; human, liver microsomes, read-out: HLM, Half-Life) was 43 min. The Anti-proliferation effect [4] was “significant anti-proliferation effects”.
